The source of these data is patent publication US8143397B2 (Medichem S.A., priority 2006, dated 2012).

Series [1] is described as follows: Particle size distribution (Malvern laser particle size analyser). It counts as physicochemical. The conditions noted are these: dispersed in 0.1% Tween 20 in DI water, sonicated 2 minutes. As for the experimental part: vii. Particle Size Distribution
Particle size measurement was obtained using a Malvern particle size analyser equipped with a 2 milliwatt Helium/Neon laser and a Fourier Transform lens system. The sample was run using the […]. The sample unit was a MS1-Small Volume Sample Dispersion Unit stirred cell. The dispersant was DI water. The sample particle size distribution was assumed to follow a normal distribution.
Analysis model: polydisperse.
Setup presentation: standard wet (30HD)
1 ml of Tween 20 was diluted to 1000 ml with water (solution 0.1% of Tween 20 in DI water). Approximately 250 mg of sample was dispersed in 20 ml of the solution 0.1% of Tween 20 in DI water. This sample was sonicated for 2 minutes and delivered dropwise to the previously filled and background corrected measuring cell until the desired obscuration was reached.
This dispersion (the dispersion in the stirring measuring cell) was measured after stabilization of the obscuration.

The nature of another series: Tapped density. It counts as physicochemical. Particulars: after milling, sieving and blending.

As for `C[C@@H](c1ncncc1F)[C@](O)(Cn1cncn1)c1ccc(F)cc1F` [Example 2, Voriconazole], in series [1], the “Particle Size Distribution D(v, 0.1)” value is reported as 36.9 μm; the “Particle Size Distribution D(v, 0.5)” value amounted to 102.4 μm; the “Particle Size Distribution D(v, 0.9)” value amounted to 220.0 μm.

`C[C@@H](c1ncncc1F)[C@](O)(Cn1cncn1)c1ccc(F)cc1F` [Example 18, Voriconazole]: in series [1], the “Mean Diameter” value is reported as 18.7 μm; the “Particle Size Distribution D(v, 0.1)” value worked out at 4.5 μm; the “Particle Size Distribution D(v, 0.5)” value was found to be 16.9 μm; the “Particle Size Distribution D(v, 0.9)” value amounted to 37.4 μm.

In the case of `C[C@@H](c1ncncc1F)[C@](O)(Cn1cncn1)c1ccc(F)cc1F` [Example 19, Voriconazole], in series [1], the “Mean Diameter” value was 23.3 μm; the “Particle Size Distribution D(v, 0.1)” value turned out to be 5.7 μm; the “Particle Size Distribution D(v, 0.5)” value turned out to be 20.8 μm; the “Particle Size Distribution D(v, 0.9)” value is recorded as 43.4 μm.

As for `C[C@@H](c1ncncc1F)[C@](O)(Cn1cncn1)c1ccc(F)cc1F` [Example 20, Voriconazole], in series [1], the “Mean Diameter” value is reported as 17.5 μm; the “Particle Size Distribution D(v, 0.1)” value worked out at 4.2 μm; the “Particle Size Distribution D(v, 0.5)” value came to 14.9 μm; the “Particle Size Distribution D(v, 0.9)” value is listed as 34.1 μm.

As for `C[C@@H](c1ncncc1F)[C@](O)(Cn1cncn1)c1ccc(F)cc1F` [Example 21, Voriconazole], in series [1], the “Mean Diameter” value amounted to 18.3 μm; the “Particle Size Distribution D(v, 0.1)” value came out at 5.3 μm; the “Particle Size Distribution D(v, 0.5)” value came out at 16.7 μm; the “Particle Size Distribution D(v, 0.9)” value is 34.1 μm.

In the case of `C[C@@H](c1ncncc1F)[C@](O)(Cn1cncn1)c1ccc(F)cc1F` [Example 22, Voriconazole], in series [1], the “Mean Diameter” value is recorded as 21.0 μm; the “Particle Size Distribution D(v, 0.1)” value is reported as 5.2 μm; the “Particle Size Distribution D(v, 0.5)” value worked out at 19.1 μm; the “Particle Size Distribution D(v, 0.9)” value came to 39.1 μm.

In the case of `C[C@@H](c1ncncc1F)[C@](O)(Cn1cncn1)c1ccc(F)cc1F` [Example 23, Voriconazole], in series [1], the “Mean Diameter” value is recorded as 19.8 μm; the “Particle Size Distribution D(v, 0.1)” value is on record as 5.2 μm; the “Particle Size Distribution D(v, 0.5)” value was 17.9 μm; the “Particle Size Distribution D(v, 0.9)” value turned out to be 37.5 μm.

As for `C[C@@H](c1ncncc1F)[C@](O)(Cn1cncn1)c1ccc(F)cc1F` [Example 24, Voriconazole], in series [1], the “Particle Size Distribution D(v, 0.1)” value was determined as 35.9 μm; the “Particle Size Distribution D(v, 0.5)” value amounted to 147.6 μm; the “Particle Size Distribution D(v, 0.9)” value is 350.0 μm. Also, the “Tapped Density” value in the series “Tapped density” came to 0.82 g/mL.

On to `C[C@@H](c1ncncc1F)[C@](O)(Cn1cncn1)c1ccc(F)cc1F` [Example 25, Voriconazole], for which, in series [1], the “Mean Diameter” value worked out at 19.4 μm; the “Particle Size Distribution D(v, 0.1)” value was 5.4 μm; the “Particle Size Distribution D(v, 0.5)” value was 17.5 μm; the “Particle Size Distribution D(v, 0.9)” value is 37.2 μm.
